Assay results as given in ChEMBL document CHEMBL1201862, “PubChem BioAssay data set” (2004).
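Growth conditions: 96-well plates. Treatment: test compound, 48 hours, 5 concentrations. Analysis: linear interpolation between bracketing concentrations; unreached endpoints set to highest concentration. GI50 = concentration required for 50% inhibition of growth.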 The source made the active and inactive calls. Cut-off read from the data, not from the text of the source: active = GI50 up to about 1.1 µM and inactive = higher.

Columns and labels:
Experiment in all cases: inhibition of tumour cell growth, NCI panel, 48 h
UO-31 = tested on: UO-31
HCC 2998 = tested on: HCC 2998
A498 = tested on: A498
HOP-62 = tested on: HOP-62
K562 = tested on: K562
MDA-N = tested on: MDA-N
NCI/ADR-RES = tested on: NCI/ADR-RES
CCRF-CEM = tested on: CCRF-CEM
MCF7 = tested on: MCF7
SF-268 = tested on: SF-268
HL-60 = tested on: HL-60
RPMI-8226 = tested on: RPMI-8226
SNB-75 = tested on: SNB-75
NCI-H226 = tested on: NCI-H226
TK-10 = tested on: TK-10
786-0 = tested on: 786-0
EKVX = tested on: EKVX
OVCAR-4 = tested on: OVCAR-4
PC-3 = tested on: PC-3
SF-539 = tested on: SF-539

SMILES	GI50 (UO-31)	GI50 (HCC 2998)	GI50 (A498)	GI50 (HOP-62)	GI50 (K562)	GI50 (MDA-N)	GI50 (NCI/ADR-RES)	GI50 (CCRF-CEM)	GI50 (MCF7)	GI50 (SF-268)	GI50 (HL-60)	GI50 (RPMI-8226)	GI50 (SNB-75)	GI50 (NCI-H226)	GI50 (TK-10)	GI50 (786-0)	GI50 (EKVX)	GI50 (OVCAR-4)	GI50 (PC-3)	GI50 (SF-539)
COC1/C=C/C(C)C(C(C)C(OC)C(C)CCC(=O)C(C)C(CC(=O)O)OC)OC(=O)/C=C/C=C(\C)CC(OC)C(OC)C2=CC(=O)O[C@@H](C(C)C(OC)CC(OC)/C=C/C(C)C(O)C1)[C@H]2O (stereo partly drawn)	0.0382 µM (active)	0.0631 µM (active)	0.0815 µM (active)	0.121 µM (active)	0.0564 µM (active)	0.0785 µM (active)	0.149 µM (active)	0.0484 µM (active)	0.0715 µM (active)	0.046 µM (active)	0.0237 µM (active)	0.0959 µM (active)	0.0311 µM (active)	0.0336 µM (active)	0.0703 µM (active)	0.0223 µM (active)	0.0474 µM (active)	0.153 µM (active)	0.0382 µM (active)	
Cc1c2c(n(CC(c3ccccc3)c3ccccc3)c1C)NN=C(C#N)S2(=O)=O	> 100 µM (inactive)	> 100 µM (inactive)	> 100 µM (inactive)	> 100 µM (inactive)		> 100 µM (inactive)	> 100 µM (inactive)		> 100 µM (inactive)	64.1 µM (inactive)		> 100 µM (inactive)	98.4 µM (inactive)	> 100 µM (inactive)	> 100 µM (inactive)	> 100 µM (inactive)	> 100 µM (inactive)	> 100 µM (inactive)	> 100 µM (inactive)	> 100 µM (inactive)
CC(C#N)(NO)C(C)(C#N)NO (stereo not drawn)	> 100 µM (inactive)	> 100 µM (inactive)	> 100 µM (inactive)		> 100 µM (inactive)	> 100 µM (inactive)	> 100 µM (inactive)	> 100 µM (inactive)	> 100 µM (inactive)	> 100 µM (inactive)	> 100 µM (inactive)	> 100 µM (inactive)	> 100 µM (inactive)	97.9 µM (inactive)	> 100 µM (inactive)	> 100 µM (inactive)	> 100 µM (inactive)	> 100 µM (inactive)	> 100 µM (inactive)	> 100 µM (inactive)
Cc1cc(C)n(C(=O)CSc2nc3ccc(I)cc3c(=O)n2Cc2ccccc2)n1		68.4 µM (inactive)	22.9 µM (inactive)	31.9 µM (inactive)	> 100 µM (inactive)	> 100 µM (inactive)	36.6 µM (inactive)	67.1 µM (inactive)	96.6 µM (inactive)	17.3 µM (inactive)	> 100 µM (inactive)	> 100 µM (inactive)	25.3 µM (inactive)	62.7 µM (inactive)	41.6 µM (inactive)	28.3 µM (inactive)	24 µM (inactive)	35.1 µM (inactive)	22.1 µM (inactive)	86.9 µM (inactive)
NCCNCCNc1ccc(NCCNCCN)c2c1C(=O)c1c(O)ccc(O)c1C2=O	> 100 µM (inactive)	> 100 µM (inactive)	70 µM (inactive)	> 100 µM (inactive)	> 100 µM (inactive)	> 100 µM (inactive)	> 100 µM (inactive)	38.9 µM (inactive)	59.7 µM (inactive)	> 100 µM (inactive)		> 100 µM (inactive)	> 100 µM (inactive)	> 100 µM (inactive)	> 100 µM (inactive)	> 100 µM (inactive)	> 100 µM (inactive)	> 100 µM (inactive)	> 100 µM (inactive)	> 100 µM (inactive)
